# Data published in article PMC3426654 (Biochemistry, 2012).
# Target: TcUGM (UDP-galactopyranose mutase from Trypanosoma cruzi) (Trypanosoma cruzi, UniProt Q4E1W2)
# Test: X-ray crystal structure, […] Å
# Type: binding
# Details: UDP complex, pH 7.5
SMILES,"X-ray crystal structure, 2.25 Å (crystals reduced by soaking in 60 mM dithionite)","X-ray crystal structure, 2.25 Å (oxidized enzyme)"
Cc1cc2c(cc1C)N(C[C@H](O)[C@H](O)[C@H](O)COP(=O)(O)OP(=O)(O)OC[C@H]1O[C@@H](n3cnc4c(N)ncnc43)[C@H](O)[C@@H]1O)c1[nH]c(=O)[nH]c(=O)c1N2 [FADH^−],"In the reduced enzyme, the FAD exhibits a butterfly-like conformation",–
Cc1cc2nc3c(=O)[nH]c(=O)nc-3n(C[C@H](O)[C@H](O)[C@H](O)COP(=O)(O)OP(=O)(O)OC[C@H]3O[C@@H](n4cnc5c(N)ncnc54)[C@H](O)[C@@H]3O)c2cc1C [FAD],–,"In the oxidized state, the electron density maps are consistent with a planar isoalloxazine"
